Measurements reported in the CheMixHub viscosity set.
± gives the uncertainty stated by the source.

Assay: xn = mol fraction of the nth substance listed

Cc1ccccc1C + CCCCCCCCCCO
viscosity [mPa·s], 101 kPa
Details	298.15 K	308.15 K
x1 = 0.0766	9.611 ± 0.065	6.581 ± 0.046
x1 = 0.1331	8.188 ± 0.055	5.606 ± 0.04
x1 = 0.1823	7.108 ± 0.048	4.864 ± 0.035
x1 = 0.2509	5.802 ± 0.04	3.987 ± 0.028
x1 = 0.3173	4.749 ± 0.033	3.288 ± 0.023
x1 = 0.3896	3.813 ± 0.026	2.671 ± 0.019
x1 = 0.4556	3.107 ± 0.021	2.214 ± 0.016
x1 = 0.5261	2.509 ± 0.017	1.815 ± 0.013
x1 = 0.6054	1.983 ± 0.014	1.459 ± 0.011
x1 = 0.6597	1.695 ± 0.012	1.264 ± 0.01
x1 = 0.7364	1.374 ± 0.011	1.041 ± 0.009
x1 = 0.8029	1.156 ± 0.009	0.895 ± 0.008
x1 = 0.873	0.977 ± 0.009	0.781 ± 0.008
x1 = 0.9447	0.84 ± 0.008	0.698 ± 0.008

Cc1ccccc1C + Cc1ccccc1
viscosity [mPa·s], 101.33 kPa
Details	x2 = 0.3003	x2 = 0.3607	x2 = 0.5223	x2 = 0.6669	x2 = 0.8205
293.15 K	0.722 ± 0.006	0.708 ± 0.006	0.67 ± 0.006	0.64 ± 0.006	0.616 ± 0.006
303.15 K	0.636 ± 0.006	0.626 ± 0.006	0.601 ± 0.005	0.567 ± 0.005	0.546 ± 0.005
313.15 K	0.568 ± 0.005	0.557 ± 0.005	0.528 ± 0.005	0.508 ± 0.005	0.489 ± 0.005
323.15 K	0.507 ± 0.005	0.5 ± 0.005	0.472 ± 0.004	0.456 ± 0.004	0.441 ± 0.004

CC(C)[C@@H]1CC[C@@H](C)C[C@H]1O + CCCCCCCCCO
Details	viscosity [mPa·s]
298.15 K, 101.33 kPa, x1 = 0.5	35.03

Cc1ccccc1C + O=C1CCCO1
viscosity [mPa·s], 101.33 kPa
Details	x2 = 0.1199	x2 = 0.1801	x2 = 0.2998	x2 = 0.4005	x2 = 0.5044	x2 = 0.5994	x2 = 0.7011	x2 = 0.7885	x2 = 0.9087
293.15 K	0.907 ± 0.009	0.955 ± 0.009	1.054 ± 0.01	1.145 ± 0.011	1.248 ± 0.012	1.351 ± 0.012	1.472 ± 0.014	1.584 ± 0.014	1.75 ± 0.016
298.15 K	0.854 ± 0.008	0.901 ± 0.009	0.996 ± 0.009	1.081 ± 0.01	1.175 ± 0.011	1.269 ± 0.012	1.379 ± 0.013	1.48 ± 0.014	1.629 ± 0.015
303.15 K	0.795 ± 0.008	0.839 ± 0.008	0.927 ± 0.009	1.006 ± 0.01	1.093 ± 0.01	1.178 ± 0.011	1.276 ± 0.012	1.367 ± 0.013	1.502 ± 0.014
308.15 K	0.747 ± 0.007	0.787 ± 0.008	0.867 ± 0.008	0.937 ± 0.009	1.014 ± 0.01	1.09 ± 0.01	1.179 ± 0.011	1.263 ± 0.012	1.39 ± 0.013

COCCOCCO + CC1COC(=O)O1
298.15 K, 101.33 kPa
Details	viscosity [mPa·s]
x1 = 0.0342	2.506 ± 0.019
x1 = 0.0633	2.515 ± 0.02
x1 = 0.0849	2.524 ± 0.02
x1 = 0.1101	2.537 ± 0.02
x1 = 0.1406	2.548 ± 0.021
x1 = 0.1617	2.559 ± 0.021
x1 = 0.1739	2.568 ± 0.021
x1 = 0.2188	2.601 ± 0.022
x1 = 0.2694	2.645 ± 0.022
x1 = 0.3234	2.698 ± 0.023
x1 = 0.3696	2.751 ± 0.024
x1 = 0.3809	2.771 ± 0.025
x1 = 0.4421	2.844 ± 0.026
x1 = 0.4715	2.886 ± 0.027
x1 = 0.5373	2.97 ± 0.028
x1 = 0.5688	3.011 ± 0.029
x1 = 0.6187	3.063 ± 0.03
x1 = 0.6576	3.108 ± 0.031
x1 = 0.7503	3.217 ± 0.033
x1 = 0.7761	3.248 ± 0.034
x1 = 0.7996	3.269 ± 0.035
x1 = 0.8142	3.282 ± 0.035
x1 = 0.8452	3.313 ± 0.036
x1 = 0.9062	3.367 ± 0.037
x1 = 0.9414	3.404 ± 0.038
x2 = 0.0198	3.432 ± 0.039

Cc1ccc(Cl)cc1 + Nc1cccc(Cl)c1
viscosity [mPa·s], 100 kPa
Details	x2 = 0.0757	x2 = 0.1649	x2 = 0.2579	x2 = 0.3519	x2 = 0.4697	x2 = 0.5707	x2 = 0.6749	x2 = 0.7826	x2 = 0.8935
303.15 K	1.052 ± 0.051	1.369 ± 0.051	1.698 ± 0.051	2.029 ± 0.052	2.441 ± 0.053	2.791 ± 0.053	3.15 ± 0.054	3.518 ± 0.055	3.895 ± 0.057
308.15 K	0.968 ± 0.051	1.253 ± 0.051	1.549 ± 0.051	1.847 ± 0.052	2.217 ± 0.052	2.531 ± 0.053	2.853 ± 0.054	3.184 ± 0.055	3.521 ± 0.056
313.15 K	0.899 ± 0.05	1.152 ± 0.051	1.414 ± 0.051	1.677 ± 0.051	2.003 ± 0.052	2.28 ± 0.053	2.564 ± 0.053	2.854 ± 0.054	3.15 ± 0.055
318.15 K	0.823 ± 0.05	1.045 ± 0.051	1.273 ± 0.051	1.502 ± 0.051	1.786 ± 0.052	2.027 ± 0.052	2.274 ± 0.053	2.526 ± 0.054	2.782 ± 0.055

CC(C)[C@@H]1CC[C@@H](C)C[C@H]1O + CCCCO
Details	viscosity [mPa·s]
298.15 K, 101.33 kPa, x1 = 0.5	18.77
